Earlier results, collected in publication PMC4763008, “Selective Inhibition of Bakuchicin Isolated from Psoralea corylifolia on CYP1A in Human Liver Microsomes” (Evidence-based Complementary and Alternative Medicine : eCAM, 2016).

What was measured:
CYP1A [1] = target: T1, CYP1A (Homo sapiens, UniProt P05177); settings: human liver microsomes ref 17; cited from earlier work
T1 sequence (P05177 2-516): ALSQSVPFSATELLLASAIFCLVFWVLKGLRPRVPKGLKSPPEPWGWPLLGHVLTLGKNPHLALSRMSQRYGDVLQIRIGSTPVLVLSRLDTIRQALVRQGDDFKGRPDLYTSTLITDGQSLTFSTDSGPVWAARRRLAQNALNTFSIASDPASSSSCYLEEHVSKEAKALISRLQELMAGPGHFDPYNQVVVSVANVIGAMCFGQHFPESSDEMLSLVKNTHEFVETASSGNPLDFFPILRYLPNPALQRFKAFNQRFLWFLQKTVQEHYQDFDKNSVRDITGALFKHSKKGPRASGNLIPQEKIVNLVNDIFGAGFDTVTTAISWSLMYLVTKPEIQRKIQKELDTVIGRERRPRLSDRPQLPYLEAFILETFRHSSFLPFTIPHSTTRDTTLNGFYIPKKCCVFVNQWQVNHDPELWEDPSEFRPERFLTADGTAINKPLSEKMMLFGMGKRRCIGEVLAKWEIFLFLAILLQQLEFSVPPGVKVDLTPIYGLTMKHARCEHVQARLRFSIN

CYP1A [2] = settings: rat liver microsomes ref 17; cited from earlier work

SMILES	type of inhibitor (CYP1A [1])	type of inhibitor (CYP1A [2])
O=c1ccc2ccc3occc3c2o1 [isopsoralen]	reversible and time-dependent inhibitor	reversible and time-dependent inhibitor
O=c1ccc2cc3ccoc3cc2o1 [psoralen]	reversible and time-dependent inhibitor	reversible and time-dependent inhibitor
